These results are taken from BindingDB's records for doi:10.1021/acs.jmedchem.6b00397 (IQM-CSIC, 2016).

Each structure is given as a SMILES string.

This assay deals with Cannabinoid receptor 2 (Homo sapiens, UniProt P34972). Kind of assay: Displacement of [3H]-CP55940 from human CB2 receptor expressed in HEK293 cell membranes after 90 mins by liquid scintillation counting method. (In a radioligand displacement assay an active substance lowers the binding of a labelled ligand.)
Chain of Cannabinoid receptor 2 (P34972 whole entry): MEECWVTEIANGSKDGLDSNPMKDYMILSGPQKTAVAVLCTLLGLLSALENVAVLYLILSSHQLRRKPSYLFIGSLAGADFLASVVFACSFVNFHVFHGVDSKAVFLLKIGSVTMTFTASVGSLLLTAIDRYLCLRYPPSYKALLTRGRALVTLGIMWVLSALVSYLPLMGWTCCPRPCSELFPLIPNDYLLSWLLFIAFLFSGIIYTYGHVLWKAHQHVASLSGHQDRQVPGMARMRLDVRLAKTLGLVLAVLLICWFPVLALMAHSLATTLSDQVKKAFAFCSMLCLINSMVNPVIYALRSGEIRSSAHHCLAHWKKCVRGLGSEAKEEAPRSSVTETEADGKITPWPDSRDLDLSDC

In turn, `CCCCCCC(C)(C)c1cc(O)c2c(c1)OC(C)(C)c1cnn(CC)c1-2` registered a Ki of over 40 µM.

In turn, `CCCCCCC(C)(C)c1cc(O)c2c(c1)OC(C)(C)c1cnn(-c3ccc(Cl)cc3Cl)c1-2` yielded an inhibition constant Ki of over 40 µM.

`CCCCCCC(C)(C)c1cc(O)c2c(c1)OC(C)(C)c1cn(CC)nc1-2` displayed a Ki of over 40 µM.

The compound `CCCCCCC(C)(C)c1cc(O)c2c(c1)OC(C)(C)c1cn(C)nc1-2` had an inhibition constant Ki of over 40 µM.

As a reminder, the Ki is a measure of affinity in units of concentration, obtained from inhibition or displacement. High values mean lower affinity, low ones higher affinity.
